Data published in US20240391940A1, “FUSED RING-CONTAINING COMPOUND, APPLICATION THEREOF, AND COMPOSITION CONTAINING SAME” (GenEros Biopharma Ltd., priority 2020, published 2024).
Where “and” joins values, the source holds several entries; their conditions need not be identical. Identical values can stand only once.

Key:
Assay type in all cases: in vivo, C57BL/6 Apoe KO mice
[1] = test system: Apoe KO mouse atherosclerosis model; assay: Atherosclerosis model: aortic plaque En-face staining and plaque area
Description: (§1) Method: Apoe KO mice were tested for basal blood lipid levels and divided into a normal control group and a high-fat group. After 8 weeks of housing, the mice from the high-fat group were divided into 4 groups of about 8: a normal diet group (Chow), a high-fat diet model group (HFD), an Atorvastatin positive group (HFD+atorvastatin 5 mpk, QD), and a GEN1-284s group (284-60 mpk, QD). Oral administration was performed for 8 consecutive weeks, and the effect of the compound on the following indicators in Apoe KO mice was observed: 4 blood lipid tests (TC, TG, HDL-C and LDL-C), aortic plaque En-face staining, and pathological oil red staining of the cardiac outflow tract.
(§2) Mice from the groups except for the normal diet control group (Chow) were fed with high-fat feed every day for […]. From week 9, each group was orally administered solvent or a corresponding test compound, and body weight data were recorded every day for 8 consecutive weeks. After the first 8 weeks' high-fat diet, blood samples were taken and centrifuged to separate serum, and the serum was tested for blood lipid levels (TCHO, TG, LDL-C and HDL-C). The mice were randomly grouped according to the TCHO results and body weight. During the subsequent 8 weeks of administration, blood lipid tests (TCHO, TG, LDL-C and HDL-C) were run once every 4 weeks.
At the end of the experiment, the mice were euthanized by CO2 inhalation, and their hearts and aortas (from the aortic arch to the iliac artery) were isolated. The isolated artery was dissected longitudinally from the aortic arch to the iliac artery, fixed in 4% paraformaldehyde for 30 min, synchronized with 60% isopropanol for 10 min, then stained in 60% oil red for 30 min, and then washed with 60% isopropanol 3 times for 5 min each time. Finally, the stained aorta was washed with deionized water and photographed. The proportion of red plaque areas was measured using Image Pro Plus 6.0 (Media Cybernetics, MD, US).

[2] = test system: Apoe KO mouse atherosclerosis model; assay: Atherosclerosis model (Apoe KO mice, high-fat diet): blood lipid tests TCHO, TG, LDL-C, HDL-C; parameters: blood lipids (CHO) in Apo E−/− mice / blood lipids (TG) in Apo E−/− mice / blood lipids (HDL-C) in Apo E−/− mice / blood lipids (LDL-C) in Apo E−/− mice: unit not given here; settings: for blood lipids (CHO) in Apo E−/− mice / blood lipids (HDL-C) in Apo E−/− mice / blood lipids (LDL-C) in Apo E−/− mice / blood lipids (TG) in Apo E−/− mice: HFD + ATV-5 mpk, 5 mg/kg
Description: as §1, §2
Mice were fasted overnight, and blood (150 μL) was collected via mandibular blood sampling or eye ball removal (for endpoint only) and left at room temperature for 2 h. The blood was centrifuged at 4° C. at 7000 rpm for 10 min, and serum was pipetted, quick-frozen in dry ice and then stored at −80° C. before analysis. The serum was tested for the biochemical indicators TCHO, TG, LDL-C and HDL-C using kits and a microplate reader.

[3] = test system: Apoe KO mouse atherosclerosis model; assay: Atherosclerosis model: plaques in the cardiac (left ventricular) outflow tract
Description: as §1, §2
Mouse heart samples were fixed overnight in 4% paraformaldehyde solution and dehydrated in sucrose solution. Then, the samples were embedded with OCT (Sakura, Japan) under a stereo microscope and made into 10 μm frozen sections. The sections were stained with oil red ORO and then subjected to routine pathological examinations. Images of the outflow tract were acquired under an optical microscope at 4× magnification, and high-quality morphological observations were carried out using an eyepiece with 20× magnification. The percentage of intimal lesions in the cardiac outflow tract was calculated. The detection criteria followed the criteria for histological classification of human atherosclerotic disease, which are described in detail below:
The area of plaques in the left ventricular outflow tract was measured using a microscope, and the proportion of plaques in the left ventricular outflow tract was calculated; this value reflects the degree of stenosis in the cardiac outflow tract vessel.

[4] = Apoe KO mice, high-fat diet, atorvastatin 5 mpk QD oral

## CC(C)c1c(C(=O)Nc2ccccc2)c(-c2ccccc2)c(-c2ccc(F)cc2)n1CC[C@@H](O)C[C@@H](O)CC(=O)O [ATV]
[1]; HFD + ATV-5 mpk, PO QD 8 W, individual mice, 5 mg/kg, in % (unit assumed)
  atherosclerotic plaques in mice (proportion of arterial plaque area): 10.98 and 13.52 and 8.609 and 9.551 and 9.286 and 13.92 and 13.86
[2]; Time 1, individual mice
  blood lipids (CHO) in Apo E−/− mice: 1.195 and 1.061 and 1.217 and 1.075 and 1.359 and 0.7849 and 0.5037
  blood lipids (HDL-C) in Apo E−/− mice: 0.4304 and 1.163 and 1.735 and 1.563 and 1.618 and 1.29 and 1.027
  blood lipids (LDL-C) in Apo E−/− mice: 1.101 and 1.061 and −0.07821 and 1.123 and 1.296 and 0.676 and 1.006
  blood lipids (TG) in Apo E−/− mice: 1.038 and 0.845 and 1.136 and 1.282 and 0.875 and 1.001 and 0.9307
[2]; Time 2, individual mice
  blood lipids (CHO) in Apo E−/− mice: 0.8468 and 0.9207 and 0.799 and 1.023 and 0.6043 and 0.8602 and 0.8475 and 0.8932
  blood lipids (HDL-C) in Apo E−/− mice: 1.178 and 0.769 and 0.5861 and 0.7669 and 0.6443 and 0.8023 and 0.8584 and 0.9664
  blood lipids (LDL-C) in Apo E−/− mice: 0.7237 and 0.8132 and 0.6614 and 1.342 and 0.603 and 0.5797 and 1.152 and 1.234
  blood lipids (TG) in Apo E−/− mice: 1.204 and 0.9447 and 1.095 and 1.111 and 0.7477 and 0.9934 and 0.7632 and 0.9336
[2]; Time 3, individual mice
  blood lipids (CHO) in Apo E−/− mice: 1.237 and 0.9298 and 1.587 and 1.424 and 1.118 and 0.7614 and 1.278 and 1.057
  blood lipids (HDL-C) in Apo E−/− mice: 0.713 (2×) and 0.8416 and 0.6487 and 1.292 and 1.1791 and 0.8576 (2×)
  blood lipids (LDL-C) in Apo E−/− mice: 0.9753 and 0.8023 and 0.8722 and 0.6477 and 0.7655 and 0.4564 and 1.218 and 1.421
  blood lipids (TG) in Apo E−/− mice: 1.341 and 0.9611 and 1.459 and 1.456 and 0.9501 and 1.063 and 1.577 and 0.6584
[2]; Time 4, individual mice
  blood lipids (CHO) in Apo E−/− mice: 1.183 and 1.199 and 1.344 and 1.673 and 1 and 1.22 and 0.7566 and 1.398
  blood lipids (HDL-C) in Apo E−/− mice: 0.9522 and 1.062 and 0.6434 and 4.724 and 0.6654 and 1.371 and 0.6875 and 0.8419
  blood lipids (LDL-C) in Apo E−/− mice: 1.05 and 1.675 and 0.9086 and 0.8511 and 1.319 and 0.3604 and 0.6019 and 1.123
  blood lipids (TG) in Apo E−/− mice: 1.516 and 1.429 and 2.38 and 2.165 and 1.213 and 1.476 and 0.5106 and 0.9949
[3]; HFD + ATV-5 mpk, PO QD 8 W, individual mice, 5 mg/kg, in %
  plaques in the cardiac outflow tracts of mice (proportion of plaques in the left ventricular outflow tract): 1.923 and 8.46 and 9.071 and 7.844 and 1.618 and 3.771 and 2.279 and 8.38

## CC(C)c1c(C(=O)Nc2ccccc2)c(-c2ccccc2)c(-c2ccc(F)cc2)n1CC[C@@H](O)C[C@@H](O)CC(=O)O [atorvastatin, reference compound]
[1]; [4]
  Proportion of the arterial plaque area: significantly reduced
[2]; Apoe KO mice, high-fat diet, atorvastatin 5 mpk QD oral, 8 weeks
  Effect on dyslipidemia: dyslipidemia was relieved
[3]; [4]
  Left ventricular outflow tract plaques: significantly fewer plaques than the HFD group
